According to patent US10941158B2, “Pyrazole ACC inhibitors and uses thereof” (Gilead Apollo, LLC, priority 2015, dated 2021):
In brackets after ≈: the same amount, converted by molar mass. Where two headings read alike, the source gives them in different places.

How the values were obtained:
human (hACC2) ACC2 = human (hACC2) ACC2 (Homo sapiens, UniProt O00763); assay: In vitro Acetyl-CoA Carboxylase (ACC) inhibition assay (ADP-Glo), hACC2; format: biochemical
Experimental: The detailed procedure is as follows. […] 10 μL ADP glo reagent was added. […] 20 μL kinase detection reagent was added.
“NA” stands for “not assayed.”

C. krusei ATCC 6258 = assay: Anti-Fungal (Candida) Activity Assay, broth microtiter MIC; format: cell-based; settings: Pichia kudriavzevii, ATCC6258; 3 replicates, MIC recorded at 48 h; read-out: MIC C. krusei ATCC 6258
Experimental: (§1) Compounds of the present invention were evaluated in an Anti-Fungal Activity Assay. An exemplary procedure for the assay, which measures the susceptibility of various Candida species to anti-fungal compounds, follows. Compounds to be tested (including fluconazole and amphotericin B) were dissolved in DMSO to obtain a solution having a concentration of 1 mg/mL. […] All species were grown from frozen stock by directly plating on to freshly prepared Sabouraud Dextrose agar (BD, Difco) and incubated overnight in ambient air at 35° C. for 24 h. A direct suspension was prepared in RPMI 1640+MOPS (Lonza, Biowhittaker) by taking individual colonies from the overnight cultures using sterile swabs soaked in sterile saline. The concentration of the suspension was determined using pre-determined standard curves. […] Broth microtiter MIC challenge plates were prepared following CLSI guidelines (M27-A3, Vol. 28 No. 14). The original CLSI guidelines focused on reading Candida MICs after 48 h of incubation. As reading after only 24 h offers a clear advantage of patient care, QC limits are being established for all drugs at 24 h. That being said there are no known interpretive breakpoints for amphotericin B at 24 h and the current fluconazole interpretive breakpoints are based on a 48 h reading. The MIC for the test compounds were recorded at 48 h. All MIC determinations were achieved by visually comparing the growth found in the antibiotic challenged wells to that of the growth control.

[1] = system: C. parapsilosis ATCC 22019; assay: as above; format: cell-based; settings: Lodderomyces parapsilosis, ATCC22019; 3 replicates, MIC recorded at 48 h; read-out: MIC C. parapsilosis ATCC 22019
Experimental: as §1

C. albicans ATCC 90028 = assay: as above; format: cell-based; settings: ATCC90028, 3 replicates, MIC recorded at 48 h, read-out: MIC C. albicans ATCC 90028
Experimental: as §1

Diplodia maydis (Dm) = assay: Growth inhibition assay of fungal pathogens; format: cell-based; settings: Stenocarpella maydis, 48 h, read-out: Concentration at 90% Inhibition Dm
Experimental: (§2) Compounds of the present invention were evaluated in a growth inhibition assay to determine the ability to control the growth of fungal pathogens, such as Botrtyis cinerea (Bc), Collectotrichum graminicola (Cg). Diplodia maydis (Dm), Fusarium moniliforme (Fm), Fusarium virguliforme (Fv), Phytophthora capsici (Pc), Rhizoctonia solani (Rs), and Septoria tritici (St). Compounds to be tested were dissolved in DMSO at 2.5 mg/ml to produce compound stock solutions (“stocks”). Stocks were diluted with DMSO by a five-fold dilution in a 96-well stock plate, and two sets of final concentrations of 50, 10, and 2 ppm or 2, 0.4, and 0.08 ppm were obtained in vitro. A set of positive controls was also prepared, with various concentrations of Soraphen (2, 0.4, and 0.08 ppm), Metalaxyl (1.1, 0.22, and 0.04 ppm), and Metconazole (2, 0.4, and 0.08 ppm or 0.2, 0.04, and 0.008 ppm) after the five-fold dilutions. Negative controls on each plate included 2% DMSO, water, and a blank (media+2% DMSO). Fungal spores were isolated from previously sub-cultured plates of Botrtyis cinerea (Bc). Collectotrichum graminicola (Cg). Diplodia maydis (Dm), Fusarium moniliforme (Fm), Fusarium virguliforme (Fv), Phytophthora capsici (Pc), and Septoria tritici (St). The isolated spores were diluted to individual concentrations with a 17% V8 liquid media. For Rhizoctonia solani (Rs) and Pythium irregulare, 1.5 mm mycelial plugs were used in place of spores and ¼ Potato Dextrose Broth (PDB) was used for dilution. The spore concentrations and plug sizes were based on growth curves generated at 48 hours for each pathogen. In a second 96-well plate, the spores or mycelial plugs, media, diluted compound solutions, and controls were combined. Once the compound was added, a true final concentration of compound in each well was measured by an OD600 reading, which adjusted for any compound precipitation that might have occurred in the well. Plate readings were repeated at both 24 and 48 hours. The blank negative control was used as a background subtraction. Additional visual ratings were performed at both 24 and 48 hours for checking on precipitation and confirming efficacy. Visual and OD600 ratings of the compounds at 48 hours were compared to the 2% DMSO negative control, and the percent of pathogen growth inhibition was determined based on those values.

Septoria tritici (St) = assay: Growth inhibition assay of fungal pathogens; format: cell-based; settings: 48 hours; for IC90: Zymoseptoria tritici, read-out: Concentration at 90% Inhibition St
Experimental: as §2

[2] = system: Phytophthora capsici (Pc); assay: Growth inhibition assay of fungal pathogens; format: cell-based; settings: 48 hours; for IC90: Phytophthora capsici, read-out: Concentration at 90% Inhibition Pc
Experimental: as §2

Rhizoctonia solani (Rs) = assay: Growth inhibition assay of fungal pathogens; format: cell-based; settings: 48 h, read-out: Concentration at 90% Inhibition Rs
Experimental: as §2

[3] = system: Fusarium virguliforme (Fv); assay: Growth inhibition assay of fungal pathogens; format: cell-based; settings: 48 h, 48 hours, read-out: Concentration at 90% Inhibition Fv
Experimental: as §2

[4] = system: Collectotrichum graminicola (Cg); assay: Growth inhibition assay of fungal pathogens; format: cell-based; settings: 48 h, read-out: Concentration at 90% Inhibition Cg
Experimental: as §2

Botrtyis cinerea (Bc) = assay: Growth inhibition assay of fungal pathogens; format: cell-based; settings: 48 h, read-out: Concentration at 90% Inhibition Bc
Experimental: as §2

[5] = system: Fusarium moniliforme (Fm); assay: Growth inhibition assay of fungal pathogens; format: cell-based; settings: Fusarium verticillioides, 48 h, 48 hours, read-out: Concentration at 90% Inhibition Fm
Experimental: as §2

human (hACC2) ACC2, sequence (O00763 whole entry): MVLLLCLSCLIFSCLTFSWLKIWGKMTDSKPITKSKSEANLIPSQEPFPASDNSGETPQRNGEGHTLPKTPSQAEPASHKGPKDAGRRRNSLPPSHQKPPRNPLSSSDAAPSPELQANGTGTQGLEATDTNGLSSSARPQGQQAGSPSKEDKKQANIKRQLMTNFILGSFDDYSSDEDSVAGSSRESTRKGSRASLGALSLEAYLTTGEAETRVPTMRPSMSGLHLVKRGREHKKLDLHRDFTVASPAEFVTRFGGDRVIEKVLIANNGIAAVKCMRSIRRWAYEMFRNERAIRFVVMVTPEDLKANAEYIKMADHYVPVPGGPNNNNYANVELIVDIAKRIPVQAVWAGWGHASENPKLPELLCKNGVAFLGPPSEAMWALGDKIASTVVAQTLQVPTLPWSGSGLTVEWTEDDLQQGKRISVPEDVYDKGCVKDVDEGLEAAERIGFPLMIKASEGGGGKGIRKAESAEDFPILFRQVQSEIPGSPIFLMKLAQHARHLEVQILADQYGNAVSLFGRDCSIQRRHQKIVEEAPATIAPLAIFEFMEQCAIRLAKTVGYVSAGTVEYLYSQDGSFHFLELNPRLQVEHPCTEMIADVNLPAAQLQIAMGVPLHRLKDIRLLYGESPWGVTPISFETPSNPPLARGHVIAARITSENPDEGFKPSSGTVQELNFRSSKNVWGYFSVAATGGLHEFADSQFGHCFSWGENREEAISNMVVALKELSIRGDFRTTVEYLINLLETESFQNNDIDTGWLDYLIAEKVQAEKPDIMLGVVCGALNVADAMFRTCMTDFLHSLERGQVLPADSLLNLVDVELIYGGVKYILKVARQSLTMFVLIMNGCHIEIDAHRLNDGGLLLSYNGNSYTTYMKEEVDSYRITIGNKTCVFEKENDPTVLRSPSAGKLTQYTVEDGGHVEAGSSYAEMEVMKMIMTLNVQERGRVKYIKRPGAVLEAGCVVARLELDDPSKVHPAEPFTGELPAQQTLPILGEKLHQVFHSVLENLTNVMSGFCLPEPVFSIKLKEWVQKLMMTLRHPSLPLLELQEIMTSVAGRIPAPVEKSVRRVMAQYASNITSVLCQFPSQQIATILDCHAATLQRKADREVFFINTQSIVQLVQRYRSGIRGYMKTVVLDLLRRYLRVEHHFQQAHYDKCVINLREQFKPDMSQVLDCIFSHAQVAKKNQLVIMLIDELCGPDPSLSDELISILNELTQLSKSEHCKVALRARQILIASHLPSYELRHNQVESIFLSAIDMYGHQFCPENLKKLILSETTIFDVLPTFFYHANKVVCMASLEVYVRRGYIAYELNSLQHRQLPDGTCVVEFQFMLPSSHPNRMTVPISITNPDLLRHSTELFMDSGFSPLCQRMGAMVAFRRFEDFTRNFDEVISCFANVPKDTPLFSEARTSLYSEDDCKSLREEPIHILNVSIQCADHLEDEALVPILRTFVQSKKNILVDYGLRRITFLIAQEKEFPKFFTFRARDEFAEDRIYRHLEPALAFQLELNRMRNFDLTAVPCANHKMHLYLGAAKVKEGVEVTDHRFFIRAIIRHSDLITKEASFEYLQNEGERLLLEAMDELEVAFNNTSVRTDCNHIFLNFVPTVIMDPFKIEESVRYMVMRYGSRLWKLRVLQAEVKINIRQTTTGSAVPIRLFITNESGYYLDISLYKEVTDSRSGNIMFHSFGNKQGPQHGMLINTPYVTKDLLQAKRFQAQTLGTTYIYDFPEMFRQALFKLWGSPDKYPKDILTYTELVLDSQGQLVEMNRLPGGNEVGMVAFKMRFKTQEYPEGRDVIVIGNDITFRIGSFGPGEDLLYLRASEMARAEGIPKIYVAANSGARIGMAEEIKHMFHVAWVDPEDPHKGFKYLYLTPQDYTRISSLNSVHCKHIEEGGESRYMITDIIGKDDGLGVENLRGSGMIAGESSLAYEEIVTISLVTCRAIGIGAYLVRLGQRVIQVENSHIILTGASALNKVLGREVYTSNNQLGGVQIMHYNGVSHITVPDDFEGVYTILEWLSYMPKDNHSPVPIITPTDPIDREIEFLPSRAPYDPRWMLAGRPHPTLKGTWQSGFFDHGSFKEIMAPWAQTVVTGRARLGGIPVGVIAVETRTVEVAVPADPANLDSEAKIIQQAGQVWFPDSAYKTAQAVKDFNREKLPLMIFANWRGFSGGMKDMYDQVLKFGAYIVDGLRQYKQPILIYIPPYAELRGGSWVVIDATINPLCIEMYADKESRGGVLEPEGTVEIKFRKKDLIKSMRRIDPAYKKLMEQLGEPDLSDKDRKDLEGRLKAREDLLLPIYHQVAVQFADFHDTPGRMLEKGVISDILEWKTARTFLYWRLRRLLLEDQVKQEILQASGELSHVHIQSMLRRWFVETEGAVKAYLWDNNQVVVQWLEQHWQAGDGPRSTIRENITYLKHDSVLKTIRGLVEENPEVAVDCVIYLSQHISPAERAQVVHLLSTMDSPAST

Compound	IC50 (human (hACC2) ACC2)	MIC (C. krusei ATCC 6258)	MIC [1]	MIC (C. albicans ATCC 90028)	IC90 (Diplodia maydis (Dm); Table 4a)	IC90 (Diplodia maydis (Dm); Table 4b)	Concentration at 90% Inhibition St (Septoria tritici (St); Table 4b)	IC90 (Septoria tritici (St); Table 4a)	IC90 ([2]; Table 4a)	Concentration at 90% Inhibition Pc ([2]; Table 4b)	IC90 (Rhizoctonia solani (Rs); Table 4a)	IC90 (Rhizoctonia solani (Rs); Table 4b)	IC90 ([3]; Table 4a)	IC90 ([3]; Table 4b)	IC90 ([4]; Table 4a)	IC90 ([4]; Table 4b)	IC90 (Botrtyis cinerea (Bc); Table 4b)	IC90 ([5]; Table 4b)	IC90 (Septoria tritici (St); Table 4b)	IC90 ([2]; Table 4b)	further results
COc1ccc(F)cc1[C@H](Cn1c(=O)n(C(C)(C)C(=O)N2CCOCC2)c(=O)c2c(C)c(-n3cccn3)sc21)OC(C)C [Compound I-3, (R)-1-(2-(5-fluoro-2-methoxyphenyl)-2-isopropoxyethyl)-5-methyl-3-(2-methyl-1-morpholino-1-oxopropan-2-yl)-6-(1H-pyrazol-1-yl)thieno[2,3-d]pyrimidine-2,4(1H,3H)-dione]	10 to 40 nM	2.1 to 4 µg/mL (≈ 3.42 to 6.52 µM)	> 4.1 µg/mL	> 4.1 µg/mL	> 50 µg/mL	10 µg/mL (≈ 16.3 µM)	D (“D” provided a compound concentration of >50 ppm at 90% inhibition of fungal pathogens)	> 50 µg/mL	> 50 µg/mL	D (“D” provided a compound concentration of >50 ppm at 90% inhibition of fungal pathogens)	> 50 µg/mL	> 50 µg/mL	2 µg/mL (≈ 3.26 µM)	2 µg/mL (≈ 3.26 µM)	> 50 µg/mL	> 50 µg/mL	10 µg/mL (≈ 16.3 µM)	2 µg/mL (≈ 3.26 µM)			IC90 (Botrtyis cinerea (Bc); Table 4a): > 50 µg/mL; IC90 ([5]; Table 4a): 2 µg/mL (≈ 3.26 µM)
COc1ccc(F)cc1[C@H](Cn1c(=O)n(C(C)(C)C(N)=O)c(=O)c2c(C)c(-n3cccn3)sc21)OC1CCOCC1 [Compound I-4, (R)-2-(1-(2-(5-fluoro-2-methoxyphenyl)-2-((tetrahydro-2H-pyran-4-yl)oxy)ethyl)-5-methyl-2,4-dioxo-6-(1H-pyrazol-1-yl)-1,4-dihydrothieno[2,3-d]pyrimidin-3(2H)-yl)-2-methylpropanamide]	10 to 40 nM	2.1 to 4 µg/mL (≈ 3.59 to 6.83 µM)	> 4.1 µg/mL	> 4.1 µg/mL	> 50 µg/mL	> 50 µg/mL	D (“D” provided a compound concentration of >50 ppm at 90% inhibition of fungal pathogens)	> 50 µg/mL	> 50 µg/mL	D (“D” provided a compound concentration of >50 ppm at 90% inhibition of fungal pathogens)	> 50 µg/mL	> 50 µg/mL	> 50 µg/mL	> 50 µg/mL	> 50 µg/mL	10 µg/mL (≈ 17.1 µM)	2 µg/mL (≈ 3.41 µM)	2 µg/mL (≈ 3.41 µM)			IC90 (Botrtyis cinerea (Bc); Table 4a): 2 µg/mL (≈ 3.41 µM); IC90 ([5]; Table 4a): 2 µg/mL (≈ 3.41 µM)
COc1ccc(F)cc1[C@H](Cn1c(=O)n(C(C)(C)C(N)=O)c(=O)c2c(C)c(-n3cccn3)sc21)O[C@H]1CC[C@@H](O)CC1 [Compound I-5, 2-(1-((R)-2-(5-fluoro-2-methoxyphenyl)-2-(((s,4S)-4-hydroxycyclohexyl)oxy)ethyl)-5-methyl-2,4-dioxo-6-(1H-pyrazol-1-yl)-1,4-dihydro-thieno[2,3-d]pyrimidin-3(2H)-yl)-2-methylpropanamide]	3 to 10 nM	1.1 to 2 µg/mL (≈ 1.83 to 3.34 µM)	2.1 to 4 µg/mL (≈ 3.5 to 6.67 µM)	1.1 to 2 µg/mL (≈ 1.83 to 3.34 µM)	> 50 µg/mL	10 µg/mL (≈ 16.7 µM)	D (“D” provided a compound concentration of >50 ppm at 90% inhibition of fungal pathogens)	> 50 µg/mL	> 50 µg/mL	D (“D” provided a compound concentration of >50 ppm at 90% inhibition of fungal pathogens)	> 50 µg/mL	10 µg/mL (≈ 16.7 µM)	> 50 µg/mL	10 µg/mL (≈ 16.7 µM)	> 50 µg/mL	> 50 µg/mL	2 µg/mL (≈ 3.34 µM)	2 µg/mL (≈ 3.34 µM)			IC90 (Botrtyis cinerea (Bc); Table 4a): 2 µg/mL (≈ 3.34 µM); IC90 ([5]; Table 4a): 2 µg/mL (≈ 3.34 µM)
COc1ccc(F)cc1[C@H](Cn1c(=O)n(C(C)(C)C(=O)N2CC(O)C2)c(=O)c2c(C)c(-n3cccn3)sc21)OC1CCOCC1 [Compound I-9, (R)-1-(2-(5-fluoro-2-methoxyphenyl)-2-((tetrahydro-2H-pyran-4-yl)oxy)ethyl)-3-(1-(3-hydroxyazetidin-1-yl)-2-methyl-1-oxopropan-2-yl)-5-methyl-6-(1H-pyrazol-1-yl)thieno[2,3-d]pyrimidine-2,4(1H,3H)-dione]	10 to 40 nM					> 50 µg/mL						> 50 µg/mL		> 50 µg/mL		> 50 µg/mL	> 50 µg/mL	> 50 µg/mL	> 50 µg/mL	> 50 µg/mL	
COc1ccccc1[C@H](Cn1c(=O)n(C(C)(C)C(N)=O)c(=O)c2c(C)c(-n3cccn3)sc21)OC1CCOCC1 [Compound I-10, (R)-2-(1-(2-(2-methoxyphenyl)-2-((tetrahydro-2H-pyran-4-yl)oxy)ethyl)-5-methyl-2,4-dioxo-6-(1H-pyrazol-1-yl)-1,4-dihydrothieno[2,3-d]pyrimidin-3(2H)-yl)-2-methylpropanamide]	3 to 10 nM					> 50 µg/mL						> 50 µg/mL		> 50 µg/mL		> 50 µg/mL	> 50 µg/mL	10 µg/mL (≈ 17.6 µM)	> 50 µg/mL	> 50 µg/mL	
COc1ccccc1[C@H](Cn1c(=O)n(C(C)(C)C(N)=O)c(=O)c2c(C)c(-n3cccn3)sc21)OC(C)C [Compound I-16, (R)-2-(1-(2-isopropoxy-2-(2-methoxyphenyl)ethyl)-5-methyl-2,4-dioxo-6-(1H-pyrazol-1-yl)-1,4-dihydrothieno[2,3-d]pyrimidin-3(2H)-yl)-2-methylpropanamide]	10 to 40 nM					> 50 µg/mL						10 µg/mL (≈ 19 µM)		> 50 µg/mL		> 50 µg/mL	> 50 µg/mL	> 50 µg/mL	> 50 µg/mL	> 50 µg/mL	
COc1ccccc1[C@H](Cn1c(=O)n(C(C)(C)C(N)=O)c(=O)c2c(C)c(-n3cccn3)sc21)OCC(C)C [Compound I-20, (R)-2-(1-(2-isobutoxy-2-(2-methoxyphenyl)ethyl)-5-methyl-2,4-dioxo-6-(1H-pyrazol-1-yl)-1,4-dihydrothieno[2,3-d]pyrimidin-3(2H)-yl)-2-methylpropanamide]	3 to 10 nM					10 µg/mL (≈ 18.5 µM)						> 50 µg/mL		> 50 µg/mL		> 50 µg/mL	10 µg/mL (≈ 18.5 µM)	10 µg/mL (≈ 18.5 µM)	> 50 µg/mL	> 50 µg/mL	
